Counter-ions that a name gives are not always drawn.
How the values were obtained:
[1] = test system: heart transplant rejection; experiment: Cardiac allograft survival (heterotopic heart transplantation in rats); format: in vivo, rat (Brown Norway donors, Lewis recipients); conditions: for mean survival time of allograft / mean survival time compared with underivatized triptolide: i.p.; for mean survival time of allograft: day -1 to 14; for mean survival time compared with underivatized triptolide: equimolar doses (YM-273 0.40, YM-274 0.33, T10 0.25 mg/kg)
Source text: Treatment of transplantation rejection, in accordance with the invention, is illustrated for rejection of an allograft by the in vivo heart transplantation model used in Example 14. The method involves a well-characterized rat model system (Ono and Lindsey, 1969) in which a transplanted heart is attached to the abdominal great vessels of an allogeneic recipient animal, and the viability of the transplanted heart is gauged by the heart's ability to beat in the recipient animal.
In one study, the animals were administered by intraperitoneal injections, from one day preceding to 14 days following heart transplantation, either control solution (5% ethanol, 10 ml/kg), triptolide (designated as T10), or with two concentrations each of YM-273 and YM-274. There were three animals in each group, except for the control group in which five animals were used.
Heterotopic whole heart transplantation was performed according to the standard method (Ono and Lindsey, 1969). The donors (Brown Norway rats, 200-255 g, Charles River, Wilmington, Mass.) and recipients (Adult male Lewis rats, 225-275g, Charles River) were anesthetized with sodium pentobarbital (40 mg/kg). Following adequate donor anticoagulation using heparin, the heart graft was removed and stored at 4° C. in PhysioSol Irrigation Solution (Abbott Laboratories, N. Chicago, Ill.). The ascending aorta and pulmonary artery were transected, and the vena cava and pulmonary veins were ligated. […] The cold ischemic time of all the cardiac grafts was less than 45 minutes. Graft heartbeat was monitored by abdominal palpation. The period of functional graft survival was measured as the number of days during which cardiac graft contractions could be detected by abdominal palpation. Results were confirmed by direct visualization at laparotomy.
Heart transplant recipient animals prepared as described above (3-5 animals/group) were treated with (i) control solution (5% ethanol, 10 ml/kg), (ii) YM-273 at 0.10 mg/kg and 0.40 mg/kg (FIG. 5A), (iii) YM-274 at 0.084 and 0.33 mg/kg (FIG. 5B), and (iv) and T10 (triptolide) 0.25 mg/kg (FIG. 6). In addition to showing the results for T10, FIG. 6 repeats the results from FIGS. 5A-5B for YM-273 and YM-274 at 0.40 and 0.33 mg/kg, respectively, such that their concentrations were equimolar relative to T10. All compounds were administered intraperitoneally. Treatment started on the day prior to surgery and continuing daily until postoperative day 14, or until the end of allograft survival.

[2] = Cytotoxicity by MTT reduction reported with the IL-1 assay (Table I); format: cell-based; conditions: mouse, thymocytes, cytotoxic when toxicity greater than 25%
Method: Potential cytotoxicity of the test samples was assessed by the measurement of their effect on the reduction of MTT (3-[4,5-Dimethylthiazole-2-yl]-2,5-diphenyltetrazolium bromide) by cultured cells. MTT, a yellow-colored compound, is reduced by mitochondrial enzymes to form the purple crystalline reduction product formazane, providing an index of cellular respiration on viable cells as well as a sensitive assay for cytotoxicity (Mossmann, 1983).
The cytotoxicity was assessed in cultured human PBMC and mouse thymocytes. A stock solution of MTT (Sigma) at 5 mg/ml in phosphate buffered saline, pH 7.4, was prepared and stored in the dark at 4° C. PBMCs or thymocytes were cultured with various concentrations of test samples in flatbottom 96-well tissue culture plates (Costar) under the same conditions as those described above, but the stimulants (X-35 or IL-1+PHA) were replaced by appropriate medium. Untreated cells with medium alone and without the test samples were used as controls. After incubation for 21 hours, 25 μl of MTT solution was added to each well. After an additional three hours of incubation, the experiment was terminated by addition of a solution of 10% sodium dodecyl sulfate in 0.01 N HCl. Following overnight incubation at 37° C. to solubilize the formazane crystals, optical density was determined at 570-650 nm in microplate reader. […]

[3] = test system: testis weight; experiment: Effect on testis weight in male mice; format: in vivo, mouse (BDF1); set-up: decrease in testis weight: dose or concentration left out as unconfirmed; conditions: 5 days on/2 days off, 5 weeks, vs saline control
Method: The compounds of the invention are also effective in reducing or inhibiting male fertility, wherein administration of a compound of the invention to a male mammal is effective to reduce the potency of the male's semen, thereby reducing or blocking fertilization. Triptolide succinate (YM-262) was tested for inhibition of fertility in male BDF1 mice, according to protocols described in Example 15. The compound was administered intraperitoneally (IP) in a saline solution, using a cycle of daily administration for 5 days followed by a two day cessation of treatment. […] The cycle was repeated for 5 weeks before evaluation of physiological effects (testis weight) and reproductive performance.
Triptolide succinate (YM-262) was tested for fertility control in male BDF1 mice, using a cycle of daily administration for 5 days followed by a two day cessation of treatment. The cycle was repeated for 5 weeks, with dosing on days 0-4, 7-11, 14-18, 21-25 and 28-32 before evaluation of physiological effects and reproductive performance. […]
On day 32, five to six mice from each dosing group were sacrificed, and the testes were removed and stored in formalin for histological analysis and weight determination. The average of both testes was calculated for each mouse, and the mean and standard error of the mean (S.E.) were determined.

[4] = Stability in blood serum by TLC; format: in vitro ADME; conditions: rat serum, 37° C
Method: The stability of triptolide succinate in blood serum was determined as detailed in Example 10B. In this study, a solution of triptolide succinate (YM-262, free acid) in DMSO was mixed with rat serum and incubated at 37° C. The mixture was assayed periodically by thin layer chromatography (TLC) to follow the hydrolysis of the triptolide succinate over time.
A solution of triptolide succinate (free acid; YM-262) in DMSO was made at a concentration of 25 mg/ml, and 0.1 ml of this solution was mixed with 0.5 ml of rat serum. The mixture was incubated at 37° C. Aliquots of the mixture were taken at 1, 3, 5, 15, 45 minutes and 18 hours and analyzed by thin layer chromatography (TLC). The TLC plates were developed in 1:5 CH2 Cl2 /Et2 O. After development, the plates were treated with iodine vapor and examined under a UV lamp. Triptolide and triptolide succinate were used as reference compounds (Rf =0.60 and 0.45, respectively).

## CC(C)C12OC1C1OC13C1(C)CCC4=C(COC4=O)C1CC1OC13C2OC(=O)CCC(=O)O (centres unmarked) [YM-273, Triptolide Succinate Tris Salt]
[1]; YM-273, 0.1 mg/kg
  mean survival time of allograft: 7 days
[1]; YM-273, 0.4 mg/kg i.p.
  mean survival time compared with control: substantial improvement over the control
[1]; YM-273, 0.4 mg/kg
  mean survival time of allograft: 24 days
[1]
  mean survival time compared with underivatized triptolide: somewhat better than that seen with underivatized triptolide

## CC(C)C12OC1C1OC13C1(C)CCC4=C(COC4=O)C1CC1OC13C2OC(=O)CCC(=O)O (centres unmarked) [YM-262, Triptolide Succinate]
[2]
  CC50 at 24 h: > 12.5 µg/mL
[3]; 0.13 mg/kg/day i.p.
  reduction in testis weight: approximately 13%
[3]; (as printed) i.p.
  decrease in testis weight: approximately 13%
[4]
  time for hydrolysis in blood serum to triptolide: ≤ 15 min
  time for hydrolysis in serum to release free triptolide: less than an hour
[4]; 3 minutes, TLC
  stability in blood serum, 3 minutes: only triptolide succinate was detected by TLC
[4]; 15 minutes, TLC
  stability in blood serum, 15 minutes: the triptolide succinate spot was gone
[4]; first 3 to 5 minutes, TLC
  stability in blood serum, 3 to 5 minutes: most of the triptolide succinate remained

## CC(C)[C@]12O[C@H]1[C@@H]1O[C@]13[C@]1(O[C@H]1C[C@H]1C4=C(CC[C@@]13C)C(=O)OC4)[C@@H]2O [Triptolide, triptolide, reference compound]
[2]
  CC50 at 24 h: > 12.5 µg/mL
[4]; 15 minutes after addition of YM-262, TLC
  triptolide formed from triptolide succinate in serum, 15 minutes: a new spot corresponding to triptolide had appeared
[4]; 45 minutes after addition of YM-262, TLC
  triptolide formed from triptolide succinate in serum, 45 minutes: the triptolide spot had also disappeared

## CC(C)C12OC1C1OC13C1(C)CCC4=C(COC4=O)C1CC1OC13C2OC(=O)CCC(=O)O (centres unmarked) [YM-274, Triptolide Succinate Sodium Salt]
[1]; YM-274, 0.0837 mg/kg
  mean survival time of allograft: 10 days
[1]; Succinate Sodium Salt
  mean survival time compared with underivatized triptolide: substantially better
